Assay [1] deals with Staphylococcus aureus. The assay can be described thus: Antibacterial activity against Staphylococcus aureus assessed as bacterial growth inhibition. It is filed as functional.
Assay [2] relates to Shigella dysenteriae. In words: Antibacterial activity against Shigella dysenteriae assessed as bacterial growth inhibition at 12.5 ug/ml. Type of assay: functional, organism-based. The conditions noted are these: dose 12.5 µg/ml.
For assay [3], the system named is Candida albicans. The assay can be described thus: Antifungal activity against Candida albicans assessed as fungal growth inhibition at 12.5 ug/ml. Type of assay: functional, organism-based. The note with it: dose 12.5 µg/ml.
In assay [4] the test system is Pseudomonas aeruginosa. In words: Antibacterial activity against Pseudomonas aeruginosa assessed as bacterial growth inhibition at 12.5 ug/ml. Type of assay: functional, organism-based. The note with it: dose 12.5 µg/ml.
The subject of assay [5] is Salmonella typhi. The assay can be described thus: Antibacterial activity against Salmonella typhi assessed as bacterial growth inhibition at 12.5 ug/ml. The conditions noted are these: Salmonella enterica subsp. enterica serovar Typhi; dose 12.5 µg/ml. Type of assay: functional, organism-based.
Assay [6] deals with Proteus vulgaris. The assay can be described thus: Antibacterial activity against Proteus vulgaris assessed as bacterial growth inhibition at 12.5 ug/ml. Type of assay: functional, organism-based. The conditions noted are these: dose 12.5 µg/ml.
The next assay relates to Corynebacterium. The assay can be described thus: Antibacterial activity against Corynebacterium assessed as bacterial growth inhibition at 12.5 ug/ml. Type of assay: functional, organism-based. The conditions noted are these: dose 12.5 µg/ml.
Assay [7] deals with Bacillus subtilis. In words: Antibacterial activity against Bacillus subtilis assessed as bacterial growth inhibition at 12.5 ug/ml. Type of assay: functional, organism-based. The note with it: dose 12.5 µg/ml.
Assay [8] relates to Streptococcus pyogenes. In words: Antibacterial activity against Streptococcus pyogenes assessed as bacterial growth inhibition at 12.5 ug/ml. It is filed as functional, organism-based. The conditions noted are these: dose 12.5 µg/ml.
The subject of assay [9] is Staphylococcus aureus. The assay can be described thus: Antibacterial activity against Staphylococcus aureus assessed as bacterial growth inhibition at 12.5 ug/ml. Type of assay: functional, organism-based. The conditions noted are these: dose 12.5 µg/ml.
Assay [10] has as its system Staphylococcus aureus. The assay can be described thus: Antibacterial activity against Staphylococcus aureus assessed as inhibition of bacterial growth measured after 24 hrs by serial dilution method. Type of assay: functional.
For assay [11], the system named is Staphylococcus aureus. In words: Bactericidal activity against Staphylococcus aureus. Type of assay: functional.
For assay [12], the system named is Streptococcus pyogenes. In words: Antibacterial activity against Streptococcus pyogenes assessed as bacterial growth inhibition. It is filed as functional.
Assay [13] has as its system Bacillus subtilis. In words: Antibacterial activity against Bacillus subtilis assessed as bacterial growth inhibition. Type of assay: functional.
In a further assay the test system is Corynebacterium ulcerans. The assay can be described thus: Antibacterial activity against Corynebacterium ulcerans assessed as bacterial growth inhibition. Type of assay: functional.
Assay [14] relates to Proteus vulgaris. The assay can be described thus: Antibacterial activity against Proteus vulgaris assessed as bacterial growth inhibition. Type of assay: functional.
Assay [15] has as its system Pseudomonas aeruginosa. The assay can be described thus: Antibacterial activity against Pseudomonas aeruginosa assessed as bacterial growth inhibition. Type of assay: functional.
Assay [16] relates to Salmonella typhi. In words: Antibacterial activity against Salmonella typhi assessed as bacterial growth inhibition. It is filed as functional, Salmonella enterica subsp. enterica serovar Typhi. The conditions noted are these: Salmonella enterica.
Assay [17] relates to Shigella dysenteriae. In words: Antibacterial activity against Shigella dysenteriae assessed as bacterial growth inhibition. It is filed as functional.
The test system of assay [18] is Candida albicans. The assay can be described thus: Antifungal activity against Candida albicans assessed as fungal growth inhibition. It is filed as functional.

Converted amounts (≈) assume the structure as drawn. The source made the active and inactive calls. The rule behind the calls is not given here.

The term MBC denotes the lowest tested concentration that kills the bacteria rather than only halting them. Broadly, the MIC is the lowest concentration that inhibits growth of the organism. As usually defined, the MFC is the lowest tested concentration that kills the fungus rather than only halting it.

With `CC[C@H](CC[C@@H](C)[C@H]1CC[C@H]2[C@@H]3CC=C4C[C@@H](O)CC[C@]4(C)[C@H]3CC[C@]12C)C(C)C` [BETA-SITOSTEROL], the MBC in the assay on Staphylococcus aureus [1] turned out to be 50 µg/mL (≈ 121 µM); against Staphylococcus aureus [11], 2210 µg/mL (≈ 5320 µM); in the assay on Streptococcus pyogenes [12], 50 µg/mL (≈ 121 µM); with Bacillus subtilis [13] it was 25 µg/mL (≈ 60.3 µM); in the assay with Corynebacterium ulcerans, 25 µg/mL (≈ 60.3 µM); in the assay on Proteus vulgaris [14], 50 µg/mL (≈ 121 µM). Besides, the MBC in the assay with Pseudomonas aeruginosa [15] is 50 µg/mL (≈ 121 µM); in the assay on Salmonella typhi [16] it was 25 µg/mL (≈ 60.3 µM); in the assay with Shigella dysenteriae [17] it was 50 µg/mL (≈ 121 µM). The “growth inhibition (GI)” value with Shigella dysenteriae [2], in the assay with Candida albicans [3], in the assay with Pseudomonas aeruginosa [4], with Salmonella typhi [5], in the assay with Proteus vulgaris [6] and with Corynebacterium was “Active” in each case. For the same compound, the “growth inhibition (GI)” value in the assay with Bacillus subtilis [7], in the assay with Streptococcus pyogenes [8] and with Staphylococcus aureus [9] was “Active” throughout. In addition, the minimal inhibitory concentration (MIC) in the assay with Staphylococcus aureus [10] was found to be 1240 µg/mL (≈ 2990 µM). Besides, in the assay with Candida albicans [18], the MFC came to 50 µg/mL (≈ 121 µM).

Source of the values: ChEMBL document CHEMBL4825710, “Antibacterial activity of β-sitosterol isolated from the leaves of Odontonema strictum (Acanthaceae)” (2021).
